Test results as given in patent publication US12721835B2, “Anticoccidial composition comprising violacein, and use thereof” (CJ CHEILJEDANG CORPORATION, priority 2020, dated 2026).

Legend:
[1] = system: Eimeria tenella; test: In vivo anticoccidial activity upon single inoculation (broilers, formulated feed); set-up: key to ACI: ACI out of 200 = survival% + RWG% − lesion×10 − oocyst index; conditions: Eimeria tenella infection; for Lesion score: appendix, scale 0-4, 8th day; for Oocyst excretion amount/g: feces day 6-8; for Lesion index: lesion score x 10; for ACI: out of 200 points; for Survival rate after challenge inoculation (%): up to 8th day; for RWG(%): vs non-infected negative control
Experimental: (§1) An in vivo anticoccidial efficacy evaluation test was performed in an animal experiment facility in Gyeongsangnam-do, South Korea. One-day-old female Ross broilers were individually weighed and randomly divided into groups to use in an experiment. Matters and conditions for experimental design were described in Table 2.
(§2) A breeding farm was managed according to the Korean poultry breeding management guidelines. Cages and the breeding farm were cleaned and disinfected before starting the test. The temperature of […] and the humidity of 40 to 50% of the breeding farm were maintained, and it was continuously monitored.
For the feed, Korea Feed Al-choi product was used, and each material (diclazuril (Yuhan Corporation YUHAN DICLA product), salinomycin (Cheil Bio Cheilsalino-60 product), violacein (CJ Cheiljedang)) was added to the feed, respectively, at a concentration described in Table 3 below to be self-mixed. Antibiotics and supplements were not used in general feed and mixed feed, and no anticoccidial agent other than each material was added. Broilers were fed ad libitum throughout the experiment period. After putting 15 1-day-age broilers in cages randomly placed for each of the control group or test group and breeding, general feed (Al-choi product) was fed for 7 days, and then the mixed feed prepared above was ingested by dividing by control group or test group. The non-infected negative control group used 1cage, and the infected negative control group and experimental group used 2cage to progress the experiment.
The feed formulation administered to the control group (negative control group or positive control group) and test group and whether coccidiosis was induced by Eimeria tenella were described in Table 3 below.
14-day-old broilers were orally inoculated with 10,000 oocysts (90% sporulated Eimeria tenella oocysts) per individual to induce coccidiosis.
The anticoccidial efficacy by test group designed in Example 1-2 above was shown as an anticoccidial index (ACI), and the anticoccidial index was calculated by Equation 2 below. The ACI score is out of 200 points, and the higher the ACI score, the more excellent the anticoccidial ability, and when it is 120 points or more to less than 140 points, it is determined that it is effective as an anticoccidial material, and when it is 140 points or more to less than 160 points, it is determined that it is excellent as an anticoccidial material, and when it is 160 points or more, it is determined that the anticoccidial effect is very excellent (Luis Miguel De Pablos et al., Anticoccidial activity of maslinic acid against infection with Eimeria tenella in chickens, Parasitol Res, 2010). Anticoccidial index (ACI)=(survival rate after challenge inoculation(%))+(daily weight gain compared to negative control group (RWG,%))−(lesion score×10)−(fecal oocyst excretion amount index) (Equation 2) • 1) Survival rate: the number of dead individuals was recorded daily, and post mortem autopsy was performed to determine a cause of mortality, and the number of individuals who died due to causes other than coccidiosis was excluded. The survival rate (%) up to the 8th day after challenge inoculation was used for anticoccidial index calculation. The measured survival rate was described in Table 4 below. • 2) Daily weight gain: body weight was measured for each cage before challenge inoculation with a protozoan into an individual and at the 7th day after challenge inoculation, and the difference was divided by the number of days to calculate the daily weight gain (ADG, g/d). ‘Daily weight gain compared to the negative control group (RWG, %)’ which was calculated by dividing the daily weight gain (ADG, average daily gain; g/d) of each experimental group by the weight gain (ADG, g/d) of the non-infected negative control group and multiplying by 100 was used for anticoccidial index calculation. […]

[2] = system: Eimeria tenella, Eimeria acervulina, and Eimeria maxima; test: In vivo anticoccidial activity upon complex inoculation of 3 kinds of protozoa (broilers, formulated feed); set-up: Oocyst index: scale not given here; conditions: 3 kinds infection; for Lesion index: lesion score x 10; for ACI: out of 200 points; for Lesion score: sum of duodenum, jejunum and appendix; for RWG(%): vs non-infected negative control
Experimental: as §1, with “Chungcheongnam-do,” for “Gyeongsangnam-do,”, “male” for “female”, “5.” for “2.”
as §2
The feed was mixed in Neobase, and each material (salinomycin (Cheilbio Cheilsalino-60 product), violacein (CJ Cheiljedang)) was added to the feed, respectively, at a concentration described in Table 6 below to be self-mixed. Antibiotics and supplements were not used in general feed and mixed feed, and no anticoccidial agent other than each material was added. Broilers were fed ad libitum throughout the experiment period. After putting 8 1-day-age broilers in cages randomly placed for each of the control group or test group and breeding, general feed (Al-choi product) was fed for 7 days, and then the mixed feed prepared above was ingested by dividing by control group or test group.
The feed formulation administered to the control group (negative control group or positive control group) and test group and whether coccidiosis was induced by three kinds of protozoa were described in Table 6 below.
Coccidiosis induction was performed by oral inoculation (challenge inoculation) in an oral tube type of 10,000, 50,000, 50,000 oocysts (eggs) with over 90% mature (sporulation) Eimeria tenella, Eimeria acervulina, and Eimeria maxima per one individual to 14-day-old broilers.
The anticoccidial efficacy by test group designed in Example 2-2 above was shown as an anticoccidial index (ACI), and the anticoccidial index was calculated by the similar method to Example 1-3 above. However, in the present example, the protozoa of Eimeria tenella, Eimeria acervulina, and Eimeria maxima were challenge inoculated, so the lesion score was calculated by summing the scores for each of the duodenum, jejunum and appendix, respectively, differently from Example 1-3.

CC[C@@H](C(=O)[C@@H](C)[C@@H](O)[C@H](C)[C@@H]1O[C@@H]([C@@H](CC)C(=O)O)CC[C@@H]1C)[C@H]1O[C@]2(C=C[C@@H](O)[C@]3(CC[C@@](C)([C@H]4CC[C@](O)(CC)[C@H](C)O4)O3)O2)[C@H](C)C[C@@H]1C [Salinomycin, salinomycin, reference compound]
ADG(g/d) after challenge inoculation ([1]; feed 60 ppm): 56 g/day
Oocyst index ([1]; feed 60 ppm): 10
Lesion score ([1]; feed 60 ppm): 2.6
Oocyst excretion amount/g ([1]; feed 60 ppm): 1.3e+08 g⁻¹
Lesion index ([1]; feed 60 ppm): 26
ACI ([1]; feed 60 ppm): 139
Survival rate after challenge inoculation (%) ([1]; feed 60 ppm): 87%
RWG(%) ([1]; feed 60 ppm): 88%
ADG(g/d) after challenge inoculation ([2]; feed 60 ppm): 46.6 g/day
Oocyst excretion amount/g ([2]; feed 60 ppm): 540000 g⁻¹
Oocyst index ([2]; feed 60 ppm): 20.0
Survival rate after challenge inoculation (%) ([2]; feed 60 ppm): 100%
Lesion index ([2]; feed 60 ppm): 55
ACI ([2]; feed 60 ppm): 130
Lesion score ([2]; feed 60 ppm): 5.5
RWG(%) ([2]; feed 60 ppm): 105.1%

O=C1N=c2ccccc2=C1c1cc(-c2c[nH]c3ccc(O)cc23)[nH]c1O [Violacein, 3-(2-(5-Hydroxyindol-3-yl)-5-oxo-2-pyrrolin-4-ylidene)-2-indolinone]
ADG(g/d) after challenge inoculation ([1]; feed 10 ppm): 60 g/day
Oocyst index ([1]; feed 10 ppm): 10
Lesion score ([1]; feed 10 ppm): 2.1
Oocyst excretion amount/g ([1]; feed 10 ppm): 1.3e+08 g⁻¹
Lesion index ([1]; feed 10 ppm): 21
ACI ([1]; feed 10 ppm): 162
Survival rate after challenge inoculation (%) ([1]; feed 10 ppm): 100%
RWG(%) ([1]; feed 10 ppm): 94%
ADG(g/d) after challenge inoculation ([1]; feed 40 ppm): 58 g/day
Oocyst index ([1]; feed 40 ppm): 10
Lesion score ([1]; feed 40 ppm): 2.7
Oocyst excretion amount/g ([1]; feed 40 ppm): 9e+07 g⁻¹
Lesion index ([1]; feed 40 ppm): 27
ACI ([1]; feed 40 ppm): 145
Survival rate after challenge inoculation (%) ([1]; feed 40 ppm): 90%
RWG(%) ([1]; feed 40 ppm): 91%
ADG(g/d) after challenge inoculation ([2]; feed 10 ppm): 40.4 g/day
Oocyst excretion amount/g ([2]; feed 10 ppm): 680000 g⁻¹
Oocyst index ([2]; feed 10 ppm): 31.4
Survival rate after challenge inoculation (%) ([2]; feed 10 ppm): 100%
Lesion index ([2]; feed 10 ppm): 51
ACI ([2]; feed 10 ppm): 109
Lesion score ([2]; feed 10 ppm): 5.1
RWG(%) ([2]; feed 10 ppm): 91.1%
ADG(g/d) after challenge inoculation ([2]; feed 15 ppm): 45.2 g/day
Oocyst excretion amount/g ([2]; feed 15 ppm): 380000 g⁻¹
Oocyst index ([2]; feed 15 ppm): 15.7
Survival rate after challenge inoculation (%) ([2]; feed 15 ppm): 100%
Lesion index ([2]; feed 15 ppm): 31
ACI ([2]; feed 15 ppm): 155
Lesion score ([2]; feed 15 ppm): 3.1
RWG(%) ([2]; feed 15 ppm): 102.0%
ADG(g/d) after challenge inoculation ([2]; feed 20 ppm): 42.1 g/day
Oocyst excretion amount/g ([2]; feed 20 ppm): 1.56e+06 g⁻¹
Oocyst index ([2]; feed 20 ppm): 22.9
Survival rate after challenge inoculation (%) ([2]; feed 20 ppm): 100%
Lesion index ([2]; feed 20 ppm): 40
ACI ([2]; feed 20 ppm): 132
Lesion score ([2]; feed 20 ppm): 4.0
RWG(%) ([2]; feed 20 ppm): 95%
